Assay results taken from patent US6749336B2, “Ionic liquid temperature sensor” (priority 2002, dated 2004).
Where two headings read alike, the source gives them in different places.

Tests used:
rats = conditions: acute toxicity; cited from earlier work
[1] = decomposition temperature of ionic liquids; assay type: physicochemical; conditions: 1-alkyl-pyridinium ionic liquids, Table 3, citation not given
[2] = 1-alkyl-3-methylimidazolium ionic liquids, Table 2, literature citations a-g; cited from earlier work

Question: Which LD50 (rats) does the source give for `CCCCCCOCn1cc[n+](C)c1.F[B-](F)(F)F` [1-hexyloxymethyl-3-methylimidazolium tetrafluoroborate] here?
Answer: 1400 mg/kg

Question: Which “Decomposition Temperature” value [1] does the source give for `CCCC[n+]1ccc(C)cc1.[Cl-]` [[1-butyl-4-methylpyridinium] Cl] here?
Answer: 214 °C

Question: With `CCCCn1cc[n+](C)c1.F[P-](F)(F)(F)(F)F` [[C4mim] [PF6]] as the compound, how does the “Decomposition Temperature” value [2] read?
Answer: 349 °C

Question: With `CCC[n+]1ccn(C)c1.[Cl-]` [[C3mim] Cl] as the compound, how does the “Decomposition Temperature” value [2] read?
Answer: 282 °C

Question: Which “Decomposition Temperature” value [1] does the source give for `F[P-](F)(F)(F)(F)F.c1ccc(CCCc2cc[nH+]cc2)cc1` [[4-phenylpropyl-pyridinium] [PF6]] here?
Answer: 163-474 °C

Question: With `CCCCn1cc[n+](C)c1.[I-]` [[C4mim] I] as the compound, how does the “Decomposition Temperature” value [2] read?
Answer: 265 °C

Question: For `CCCC[n+]1cccc(C)c1.F[P-](F)(F)(F)(F)F` [[1-butyl-3-methylpyridinium] [PF6]], which “Decomposition Temperature” value [1] is on record?
Answer: 347 °C

Question: With `CCCC[n+]1ccc(C)cc1.F[B-](F)(F)F` [[1-butyl-4-methylpyridinium] [BF4]] as the compound, how does the “Decomposition Temperature” value [1] read?
Answer: 332 °C

Question: For `CCCC[n+]1ccc(C)cc1.F[P-](F)(F)(F)(F)F` [[1-butyl-4-methylpyridinium] [PF6]], which “Decomposition Temperature” value [1] is on record?
Answer: 358 °C

Question: With `CCCCn1cc[n+](C)c1.[Cl-]` [[C4mim] Cl] as the compound, how does the “Decomposition Temperature” value [2] read?
Answer: 254 °C

Question: Which “Decomposition Temperature” value [2] does the source give for `CCCCCCn1cc[n+](C)c1.F[P-](F)(F)(F)(F)F` [[C6mim] [PF6]] here?
Answer: 417 °C

Question: With `CCCCc1ccc[nH+]c1.F[P-](F)(F)(F)(F)F` [[3-n-butyl-pyridinium] [PF6]] as the compound, how does the “Decomposition Temperature” value [1] read?
Answer: 125-444 °C

Question: For `CCCCCCCCn1cc[n+](C)c1.[Cl-]` [[C8mim] Cl], which “Decomposition Temperature” value [2] is on record?
Answer: 243 °C

Question: For `CCCn1cc[n+](C)c1.F[P-](F)(F)(F)(F)F` [[C3mim] [PF6]], which “Decomposition Temperature” value [2] is on record?
Answer: 335 °C

Question: For `CCCCCC[n+]1ccc(C)cc1.[Cl-]` [[1-hexyl-4-methylpyridinium] Cl], which “Decomposition Temperature” value [1] is on record?
Answer: 218 °C

Question: For `CCCCCCn1cc[n+](C)c1.[Cl-]` [[C6mim] Cl], which “Decomposition Temperature” value [2] is on record?
Answer: 253 °C
